Test results as given in US20070274916A1, “Method for Identifying Compounds that Affect Expression of Tryptophan Hydroxylase Isoform 2” (priority 2003, published 2007).

Assays:
Format in all cases: in vivo, mouse
TPH1 mRNA [1] = test: TPH1 mRNA in murine DRN by in situ hybridization histochemistry (TPH1-892 antisense riboprobe); conditions: 0.2 mpk s.c. once daily for four days; ovariectomized mice; FIG. 5A
[2] = Uterine weight of ovariectomized female mice; conditions: FIG. 12
TPH1 mRNA [3] = test: TPH1 message levels in ER-β knockout mice
Experimental: Female mice (13 to 16 wks of age) were ovariectomized (C57BL/6s from Charles River; ER Knockout animals from Taconic). Animals were fed a soy-free rodent chow and allowed a minimum of one week to recuperate from surgery and shipping. Mice were dosed subcutaneously in the morning (once daily for 4 days) with 0.1 cc of vehicle (sesame oil) or compound (3, 10, or 20 mpk dexamethasone, RU486, estradiol, or prednisolone as indicated). Approximately six hours following the fourth dose, mice were deeply anesthetized with ketamine/xylazine and brains were removed from the skull, placed ventral side up in a mouse brain block on ice, and ice-cold razor blades were inserted into the block at 1 mm intervals. The caudal extent of the hypothalamus was used as an anatomical marker for the placement of the first razor blade, and 4 blades were placed in sequential slots, caudally. The four sections were examined and the two that encompassed the greatest extent of the dorsal raphe were placed in a tube containing RNALATER (Ambion, Austin, Tex.) and placed at 4° C. overnight. Brain slices were removed from RNALATER after 24 hours and stored at −80° C. in fresh tubes.

SMILES: C[C@]12CC[C@@H]3c4ccc(O)cc4CC[C@H]3[C@@H]1CC[C@@H]2O [17β-estradiol]
- TPH1 mRNA induction in the DRN (TPH1 mRNA [1]): 3 fold
- uterine weight measurements [2]: dramatically induced
- effect on TPH1 message levels (TPH1 mRNA [3]): no effect
